Reference: patent publication US20240294572A1, “Antimicrobial Peptides” (priority 2021, published 2024)
≈ marks a conversion by molar mass, not a printed value. Non-standard residues stand in square brackets, D forms with d. Residues, ends and D or L forms follow the SMILES beside them. No end group written: not given here. *: point of attachment. Myristoyl = CCCCCCCCCCCCCC(=O)*; Lauroyl = CCCCCCCCCCCC(=O)*; Octanoyl = CCCCCCCC(=O)*; Hexanoyl = CCCCCC(=O)*

Legend:
Assay type in all cases: cell-based
S. aureus USA300 LAC [1] = assay: Bacterial membrane permeation (propidium iodide); details: 12.5 μM
Description: The experiment was performed as described with minor modifications (Mishra, et al. (2019) Proc. Natl. Acad. Sci., 116:13517-13522). Serially diluted 10×peptides (10 μL each well) were created in 96-well microtiter plates. Propidium iodide (2 μL) at a fixed concentration of 20 μM was added to each well followed by 88 μL of the exponential phase S. aureus USA300 culture (a final OD600˜0.1 in TSB media or PBS). Both daptomycin (98%, TSZChem, MA) and rifamycin (98%, Alfa Aesar, MA) were used as controls. The plate was incubated at 37° C. with continuous shaking at 100 rpm in a FLUOstar® Omega (BMG LABTECH, NC) microplate reader. The samples fluorescence was read at every 5 minutes for 24 cycles with excitation and emission wavelengths of 584 and 620 nm, respectively. Plots were generated using average values from the experiments using GraphPad Prism 7.

P. aeruginosa PAO1 = tested on: P. aeruginosa PAO1
Description: (§1) The antibacterial activity of peptides was evaluated using a standard broth microdilution protocol (Clinical Laboratories Standards Institute (CLSI): M07-A10. Methods for Dilution Antimicrobial Susceptibility Tests for Bacteria that grow aerobically; Approved Standard, Tenth Edition, 2015) with minor modifications as described (Mishra, et al. (2019) Proc. Natl. Acad. Sci., 116:13517-13522). In brief, peptides (10 μL per well) with 2-fold dilutions were made in 96-well polystyrene microplates. Subsequently, the logarithmic phase bacterial cultures (i.e., optical density at 600 nm ˜0.5) were diluted to 0.001 OD and aliquoted to 90 μL per well. The plates were incubated overnight at 37°° C. Bacterial controls were treated with water, and the wells containing only the TSB media were used as blank. Positive controls included the parent peptide LL-37 as well as KR12. Post incubation, the plates were read at 630 nm using ChroMate® 4300 Microplate Reader (Awareness Technology, FL).

S. aureus USA300 LAC [2] = details: USA300
Description: as §1
(§2) To study the influence of medium conditions on the antimicrobial activity of peptides against S. aureus USA300, different pH, sodium chloride (NaCl), human sera were included into the antibacterial assays. Control experiments in TSB without any additions (pH 7.4) were set up in the same manner. In addition, antimicrobial activities of human LL-37, KR12, and C10-KR8d were compared in 10%, 50%, and 100% TSB as well as in TSB and MHB using E. coli ATCC 25922 and S. aureus USA300 LAC.

E. coli ATCC 25922 = tested on: E. coli ATCC 25922
Description: as §1, §2

[3] = tested on: Klebsiella pneumonia ATCC 13883; assay: Antibacterial broth microdilution MIC
Description: as §1

[4] = tested on: human red blood cells (hRBCs); details: red cells of human, 1 h
Description: Hemolytic assays of peptides were performed as described (Lakshmaiah, et al. (2020) Proc. Natl. Acad. Sci., 117:19446-19454). Briefly, human red blood cells (hRBCs) were obtained from UNMC Blood Bank. The cells were washed 3× with isotonic saline (0.9% NaCl) and diluted to 2% (v/v). Peptides at various concentrations were added to the 2% blood cells and incubated at 37° C. for 1 hour. Post-incubation, the plates were spun at 2000 rpm for 10 minutes; aliquots of the supernatant were carefully transferred to a fresh 96-well microplate. The amount of cells lysed is proportional to the hemoglobin released and was measured at 545 nm using a ChroMate® microplate reader (Awareness Technology, FL). The percent lysis was calculated by assuming 100% release when human blood cells were treated with 1% Triton™ X-100, and 0% release when incubated with PBS. The peptide concentration that caused 50% lysis of hRBCs is defined as HC50. The cell selectivity index (CSI) was calculated as the ratio between HC50 and the MIC of the corresponding peptide against MRSA.

S. aureus Newman = tested on: S. aureus Newman
Description: as §1

S. aureus Mu50 = tested on: S. aureus Mu50
Description: as §1

S. aureus USA200 = tested on: S. aureus USA200
Description: as §1

S. aureus USA400 = tested on: S. aureus USA400
Description: as §1

| Compound | MIC (μM) PA (P. aeruginosa PAO1) | MIC (μM) SA (S. aureus USA300 LAC [2]) | MIC (μM) EC (E. coli ATCC 25922) | MIC (μM) KP [3] | HC50 [4] | also measured |
| --- | --- | --- | --- | --- | --- | --- |
| CO[C@H]1/C=C/O[C@@]2(C)Oc3c(C)c(O)c4c(O)c(cc(O)c4c3C2=O)NC(=O)/C(C)=C\C=C\[C@H](C)[C@H](O)[C@@H](C)[C@@H](O)[C@@H](C)[C@H](OC(C)=O)[C@@H]1C [rifamycin, reference compound] | – | – | – | – | – | membrane permeation (propidium iodide fluorescence) (S. aureus USA300 LAC [1]): unable to achieve the same effect |
| CCCCCCCC(=O)N[C@@H](CCCCN)C(=O)N[C@@H](CCCNC(=N)N)C(=O)N[C@H](C(=O)N[C@@H](Cc1c[nH]c2ccccc12)C(=O)N[C@@H](CCC(N)=O)C(=O)N[C@@H](CCCNC(=N)N)C(=O)N[C@H](C(=O)N[C@@H](CCCCN)C(N)=O)[C@@H](C)CC)[C@@H](C)CC [Peptide C8-KR8] (Octanoyl-KRIWQRIK-NH2) | 12.5 µM (≈ 15.7 µg/mL) | 6.2 µM (≈ 7.77 µg/mL) | 25 µM (≈ 31.3 µg/mL) | >50 µM | >200 µM | – |
| CCCCCCCCCCCC(=O)N[C@@H](CCCCN)C(=O)N[C@@H](CCCNC(=N)N)C(=O)N[C@H](C(=O)N[C@@H](Cc1c[nH]c2ccccc12)C(=O)N[C@@H](CCC(N)=O)C(=O)N[C@@H](CCCNC(=N)N)C(=O)N[C@H](C(=O)N[C@@H](CCCCN)C(N)=O)[C@@H](C)CC)[C@@H](C)CC [Peptide C12-KR8] (Lauroyl-KRIWQRIK-NH2) | 3.1 µM (≈ 4.06 µg/mL) | 1.5 µM (≈ 1.96 µg/mL) | 6.2 µM (≈ 8.11 µg/mL) | >50 µM | 35 µM | – |
| CCCCCCCCCCCC(=O)N[C@@H](CCCCN)C(=O)N[C@@H](CCCNC(=N)N)C(=O)N[C@H](C(=O)N[C@@H](Cc1c[nH]c2ccccc12)C(N)=O)[C@@H](C)CC [Peptide C12-KR4] (Lauroyl-KRIW-NH2) | 6.2 µM (≈ 4.86 µg/mL) | 3.1 µM (≈ 2.43 µg/mL) | 12.5 µM (≈ 9.79 µg/mL) | >50 µM | 30 µM | – |
| CCCCCCCCCCCCCC(=O)N[C@@H](CCCCN)C(=O)N[C@@H](CCCNC(=N)N)C(=O)N[C@H](C(=O)N[C@@H](Cc1c[nH]c2ccccc12)C(N)=O)[C@@H](C)CC [Peptide C14-KR4] (Myristoyl-KRIW-NH2) | 6.2 µM (≈ 5.03 µg/mL) | 3.1 µM (≈ 2.51 µg/mL) | 12.5 to 50 µM | 12.5 µM (≈ 10.1 µg/mL) | <25 µM | – |
| CCCCCC(=O)N[C@@H](CCCCN)C(=O)N[C@@H](CCCNC(=N)N)C(=O)N[C@H](C(=O)N[C@@H](Cc1c[nH]c2ccccc12)C(=O)N[C@@H](CCC(N)=O)C(=O)N[C@@H](CCCNC(=N)N)C(=O)N[C@H](C(=O)N[C@@H](CCCCN)C(N)=O)[C@@H](C)CC)[C@@H](C)CC [Peptide C6-KR8] (Hexanoyl-KRIWQRIK-NH2) | >50 µM | >50 µM | >50 µM | >50 µM | >200 µM | – |
| CCCCCCCCCCCCCC(=O)N[C@@H](CCCCN)C(=O)N[C@@H](CCCNC(=N)N)C(=O)N[C@H](C(=O)N[C@@H](Cc1c[nH]c2ccccc12)C(=O)N[C@@H](CCC(N)=O)C(=O)N[C@@H](CCCNC(=N)N)C(=O)N[C@H](C(=O)N[C@@H](CCCCN)C(=O)N[C@@H](CC(=O)O)C(=O)N[C@@H](Cc1ccccc1)C(N)=O)[C@@H](C)CC)[C@@H](C)CC [Peptide C14-KR10] (Myristoyl-KRIWQRIKDF-NH2) | 12.5 µM (≈ 20 µg/mL) | 3.1 µM (≈ 4.96 µg/mL) | 50 µM (≈ 80 µg/mL) | 6.2 µM (≈ 9.91 µg/mL) | <25 µM | – |
| CCCCCCCC(=O)N[C@@H](CCCCN)C(=O)N[C@@H](CCCNC(=N)N)C(=O)N[C@H](C(=O)N[C@@H](Cc1c[nH]c2ccccc12)C(=O)N[C@@H](CCC(N)=O)C(=O)N[C@@H](CCCNC(=N)N)C(N)=O)[C@@H](C)CC [Peptide C8-KR6] (Octanoyl-KRIWQR-NH2) | >50 µM | >50 µM | 50 µM (≈ 50.6 µg/mL) | >50 µM | >200 µM | – |
| CCCCCCCC(=O)N[C@H](CCCCN)C(=O)N[C@H](CCCNC(=N)N)C(=O)N[C@@H](C(=O)N[C@H](Cc1c[nH]c2ccccc12)C(=O)N[C@H](CCC(N)=O)C(=O)N[C@H](CCCNC(=N)N)C(=O)N[C@@H](C(=O)N[C@H](CCCCN)C(=O)N[C@H](CC(=O)O)C(=O)N[C@H](Cc1ccccc1)C(N)=O)[C@H](C)CC)[C@H](C)CC [Peptide C8-KR10d] (Octanoyl-[dK][dR][dI][dW][dQ][dR][dI][dK][dD][dF]-NH2) | – | – | 6.2 µM (≈ 9.39 µg/mL) | 12.5 µM (≈ 18.9 µg/mL) | 150 µM | Minimal inhibitory concentration, Newman (S. aureus Newman): 3.1 µM (≈ 4.7 µg/mL); Minimal inhibitory concentration, Mu50 (S. aureus Mu50): 3.1 µM (≈ 4.7 µg/mL); Minimal inhibitory concentration, USA200 (S. aureus USA200): 3.1 µM (≈ 4.7 µg/mL); Minimal inhibitory concentration, USA400 (S. aureus USA400): 3.1 µM (≈ 4.7 µg/mL) |
| CCCCCCCCCCCC(=O)N[C@@H](CCCCN)C(=O)N[C@@H](CCCNC(=N)N)C(=O)N[C@H](C(=O)N[C@@H](Cc1c[nH]c2ccccc12)C(=O)N[C@@H](CCC(N)=O)C(=O)N[C@@H](CCCNC(=N)N)C(=O)N[C@H](C(=O)N[C@@H](CCCCN)C(=O)N[C@@H](CC(=O)O)C(=O)N[C@@H](Cc1ccccc1)C(=O)N[C@@H](CC(C)C)C(=O)N[C@@H](CCCNC(=N)N)C(N)=O)[C@@H](C)CC)[C@@H](C)CC [Peptide C12-KR12] (Lauroyl-KRIWQRIKDFLR-NH2) | >50 µM | 6.2 µM (≈ 11.4 µg/mL) | >50 µM | 12.5 µM (≈ 23 µg/mL) | <25 µM | – |
| KRIVQRIKDFLR-NH2 [KR12, reference compound] | 25 µM | – | 50 µM | >50 µM | >340 µM | Minimal inhibitory concentration against S. aureus, 10% TSB (S. aureus USA300 LAC [2]): 6.2 µM; Minimal inhibitory concentration against S. aureus, 50% TSB (S. aureus USA300 LAC [2]): >50 µM; Minimal inhibitory concentration against S. aureus, 100% MHB (S. aureus USA300 LAC [2]): >50 µM; Minimal inhibitory concentration against S. aureus, 100% TSB (S. aureus USA300 LAC [2]): >50 µM; Minimal inhibitory concentration against E. coli, 10% TSB (E. coli ATCC 25922): 1.6 µM; Minimal inhibitory concentration against E. coli, 50% TSB (E. coli ATCC 25922): 3.1 µM; Minimal inhibitory concentration against E. coli, 100% MHB (E. coli ATCC 25922): >50 µM |
